Laboratory results published in patent publication US20240009191A1, “METHOD AND COMPOSITION FOR THE TREATMENT OF DISEASE” (DIMERIX BIOSCIENCE PTY LTD, priority 2019, published 2024).

Tests used:
Assay type in all cases: cell-based
AT1R-CXCR2 heteromer [1] = target: T1, AT1R-CXCR2 heteromer (Homo sapiens, UniProt P25025+P30556); test: BRET trafficking of AT1R/Rluc8 (Venus/Kras, Rab5) with unlabelled CXCR2, pre-treatment with vehicle or antagonists/inverse agonists; settings: 50 minutes after pre-treatment (10 μM); for effect of both CXCL8 and AngII combined on AT1R/Rluc8-Venus/Kras BRET / effect of both CXCL8 and AngII combined on AT1R/Rluc8-Venus/Rab5 BRET: 10 nM CXCL8 and 100 nM AngII; for effect of both CXCL8 and AngII combined on AT1R/Rluc8-Venus/Kras BRET: FIG. 19B-19F; for effect of both CXCL8 and AngII combined on AT1R/Rluc8-Venus/Rab5 BRET: FIG. 20B-20F; for effect of AngII on AT1R/Rluc8-Venus/Kras BRET / effect of AngII on AT1R/Rluc8-Venus/Rab5 BRET: 100 nM AngII only; for effect of AngII on AT1R/Rluc8-Venus/Kras BRET: FIG. 19A; for effect of AngII on AT1R/Rluc8-Venus/Rab5 BRET: FIG. 20A
T1 sequence (P30556 1-359): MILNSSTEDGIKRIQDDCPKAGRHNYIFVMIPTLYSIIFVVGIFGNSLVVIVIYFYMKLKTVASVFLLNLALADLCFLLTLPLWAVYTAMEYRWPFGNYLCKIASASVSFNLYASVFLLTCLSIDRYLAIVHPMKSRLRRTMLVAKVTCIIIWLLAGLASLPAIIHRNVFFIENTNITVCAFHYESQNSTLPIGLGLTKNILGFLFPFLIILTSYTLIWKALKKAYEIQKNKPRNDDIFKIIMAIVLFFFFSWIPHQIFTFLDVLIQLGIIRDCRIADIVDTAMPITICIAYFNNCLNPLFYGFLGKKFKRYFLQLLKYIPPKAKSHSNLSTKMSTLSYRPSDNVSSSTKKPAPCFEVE
T1 sequence (P25025 1-360): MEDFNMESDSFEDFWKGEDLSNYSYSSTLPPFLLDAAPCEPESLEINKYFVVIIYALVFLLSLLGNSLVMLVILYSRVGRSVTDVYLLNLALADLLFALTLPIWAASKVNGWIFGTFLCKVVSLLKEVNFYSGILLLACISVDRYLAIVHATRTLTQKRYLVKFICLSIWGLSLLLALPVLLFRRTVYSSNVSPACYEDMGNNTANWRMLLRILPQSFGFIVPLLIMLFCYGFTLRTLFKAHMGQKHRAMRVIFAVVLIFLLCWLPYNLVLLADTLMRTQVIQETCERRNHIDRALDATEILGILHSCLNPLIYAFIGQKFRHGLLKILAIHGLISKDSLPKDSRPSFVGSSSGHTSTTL
Method: (§1) HEK293FT cells were seeded in 6-well plates at a density of approximately 700,000 cells/well and maintained at 37° C., 5% CO2 in Complete Media (DMEM containing 0.3 mg/ml glutamine, 100 IU/ml penicillin and 100 μg/ml streptomycin (Gibco/Thermo Fisher)) supplemented with 10% fetal calf serum (FCS; Bovogen). Transient transfections were carried out 24 h after seeding using FuGene6™ (Promega) according to manufacturer instructions. 24 h post-transfection, cells were washed with PBS, detached using 0.05% trypsin/0.53 mM EDTA, resuspended in HEPES-buffered phenol red free Complete Media containing 5% FCS and added to a poly-L-lysine-coated white 96-well microplate (Greiner Bio-One). 48 h post-transfection, bioluminescence resonance energy transfer (BRET) assays were carried out following pre-incubation of cells with EnduRen™ (Promega) at a final concentration of 30 μM, at 37° C., 5% CO2 for 2 h. BRET measurements were taken at 37° C. using the LUMlstar™ or CLARIOstar™ (BMG Labtech).
(§2) For antagonist/inverse agonist assays, cells were pre-incubated with EnduRen for 1.5 hours, followed by the addition of vehicle or antagonists/inverse agonists (10 μM) for another 30 minutes.
(§3) The BRET signal observed between interacting proteins is normalized by subtracting the background BRET ratio. […] In the following examples, the second calculation will be used and the signal is described as ligand-induced BRET′. Furthermore, for data shown in FIGS. 4 to 20, all data points in a given set are corrected relative to the final data point prior to agonist treatment, which is fixed to zero. In keys on FIGS. 7 to 20, “>” means “followed by after 50 minutes”, with agonists added at time zero on the x-axes.
(§4) Prior to agonist treatment (added at 0 minutes), a baseline BRET signal was recorded for each of the combinations for 20 minutes. Data were calculated as ligand-induced BRET relative to the ‘vehicle followed by vehicle’ (veh>veh) data set.

AT1R-CXCR2 heteromer [2] = target: T2, AT1R-CXCR2 heteromer (Homo sapiens, UniProt P25025+P30556); test: BRET Gi coupling, CXCR2/Rluc8, Venus/mGsi and HA-AT1R, pre-treatment with antagonists/inverse agonists; settings: FIGS. 6-15; for effect of CXCL8 only on CXCR2/Rluc8-Venus/mGsi BRET: 10 nM CXCL8, 50 minutes after pre-treatment with antagonists/inverse agonists (10 μM); for effect of CXCL8 and AngII combined on CXCR2/Rluc8-Venus/mGsi BRET: 10 nM CXCL8 and 100 nM AngII; for effect of CXCL8 and AngII combined on CXCR2/Rluc8-Venus/mGsi BRET / effect of AngII only on CXCR2/Rluc8-Venus/mGsi BRET: 50 minutes after pre-treatment with antagonists/inverse agonists (10 μM); for effect of AngII only on CXCR2/Rluc8-Venus/mGsi BRET: 100 nM AngII
T2 sequence (P25025 1-360): T1 sequence (P25025 1-360)
T2 sequence (P30556 1-359): T1 sequence (P30556 1-359)
Method: as §1, §2, §3, §4

AT1R-CXCR2 heteromer [3] = target: T2, AT1R-CXCR2 heteromer; test: BRET trafficking of CXCR2/Rluc8 (Venus/Kras, Rab5, Rab8) with HA-AT1R, pre-treatment with vehicle or antagonists/inverse agonists; settings: 50 minutes after pre-treatment (10 μM); for effect of both CXCL8 and AngII combined on CXCR2/Rluc8-Venus/Kras BRET / effect of both CXCL8 and AngII combined on CXCR2/Rluc8-Venus/Rab5 BRET / effect of both CXCL8 and AngII combined on CXCR2/Rluc8-Venus/Rab8 BRET: 10 nM CXCL8 and 100 nM AngII; for effect of both CXCL8 and AngII combined on CXCR2/Rluc8-Venus/Kras BRET: FIG. 16C, 16E-16H; for effect of both CXCL8 and AngII combined on CXCR2/Rluc8-Venus/Rab5 BRET: FIG. 17C, 17E-17H; for effect of both CXCL8 and AngII combined on CXCR2/Rluc8-Venus/Rab8 BRET: FIG. 18C, 18E-18H; for effect of AngII on CXCR2/Rluc8-Venus/Kras BRET / effect of AngII on CXCR2/Rluc8-Venus/Rab5 BRET / effect of AngII on CXCR2/Rluc8-Venus/Rab8 BRET: 100 nM AngII only; for effect of AngII on CXCR2/Rluc8-Venus/Kras BRET: FIG. 16B, 16D; for effect of AngII on CXCR2/Rluc8-Venus/Rab5 BRET: FIG. 17B, 17D; for effect of AngII on CXCR2/Rluc8-Venus/Rab8 BRET: FIG. 18B, 18D
Method: as §1, §2, §3, §4

Structure (SMILES) | effect of both CXCL8 and AngII combined on AT1R/Rluc8-Venus/Kras BRET (AT1R-CXCR2 heteromer [1]) | effect of both CXCL8 and AngII combined on AT1R/Rluc8-Venus/Rab5 BRET (AT1R-CXCR2 heteromer [1]) | effect of CXCL8 only on CXCR2/Rluc8-Venus/mGsi BRET (AT1R-CXCR2 heteromer [2]) | effect of CXCL8 and AngII combined on CXCR2/Rluc8-Venus/mGsi BRET (AT1R-CXCR2 heteromer [2]) | effect of AngII only on CXCR2/Rluc8-Venus/mGsi BRET (AT1R-CXCR2 heteromer [2]) | effect of both CXCL8 and AngII combined on CXCR2/Rluc8-Venus/Kras BRET (AT1R-CXCR2 heteromer [3]) | effect of both CXCL8 and AngII combined on CXCR2/Rluc8-Venus/Rab5 BRET (AT1R-CXCR2 heteromer [3]) | effect of both CXCL8 and AngII combined on CXCR2/Rluc8-Venus/Rab8 BRET (AT1R-CXCR2 heteromer [3]) | effect of AngII on CXCR2/Rluc8-Venus/Kras BRET (AT1R-CXCR2 heteromer [3]) | effect of AngII on CXCR2/Rluc8-Venus/Rab5 BRET (AT1R-CXCR2 heteromer [3]) | effect of AngII on CXCR2/Rluc8-Venus/Rab8 BRET (AT1R-CXCR2 heteromer [3]) | effect of AngII on AT1R/Rluc8-Venus/Kras BRET (AT1R-CXCR2 heteromer [1]) | effect of AngII on AT1R/Rluc8-Venus/Rab5 BRET (AT1R-CXCR2 heteromer [1])
O=C(Nc1ccc([N+](=O)[O-])cc1O)Nc1ccccc1Br [SB225002] | indistinguishable from the effect observed with AngII only | indistinguishable from the effect observed with AngII only | completely inhibited | indistinguishable from that observed with AngII only | not being altered | indistinguishable from the effect observed with AngII only | appears to inhibit the effect of AngII as well as that of CXCL8 | indistinguishable from the effect observed with AngII only | did not alter | did appear to inhibit | did not alter | – | –
CCOc1nc2cccc(C(=O)O)c2n1Cc1ccc(-c2ccccc2-c2nc(=O)o[nH]2)cc1 [azilsartan] | completely inhibited | completely inhibited | not being altered | indistinguishable from that observed with CXCL8 only | completely inhibited | indistinguishable from the effect observed with CXCL8 only | indistinguishable from the effect observed with CXCL8 only | completely inhibited | completely inhibited | completely inhibited | completely inhibited | completely inhibited | completely inhibited
CCOc1nc2cccc(C(=O)O)c2n1Cc1ccc(-c2ccccc2-c2nnn[nH]2)cc1 [candesartan] | – | – | not being altered | indistinguishable from that observed with CXCL8 only | completely inhibited | – | – | – | – | – | – | – | –
Cc1c(F)cccc1NC(=O)Nc1ccc(Cl)c(S(=O)(=O)[C@H]2CCCNC2)c1O [danirixin] | indistinguishable from the effect observed with AngII only | indistinguishable from the effect observed with AngII only | completely inhibited | indistinguishable from that observed with AngII only | not being altered | – | – | – | – | – | – | – | –
CCCCc1ncc(/C=C(\Cc2cccs2)C(=O)O)n1Cc1ccc(C(=O)O)cc1 [eprosartan] | – | – | not being altered | indistinguishable from that observed with CXCL8 only | completely inhibited | – | – | – | – | – | – | – | –
CCCCC1=NC2(CCCC2)C(=O)N1Cc1ccc(-c2ccccc2-c2nnn[nH]2)cc1 [irbesartan] | completely inhibited | completely inhibited | not being altered | indistinguishable from that observed with CXCL8 only | completely inhibited | indistinguishable from the effect observed with CXCL8 only | indistinguishable from the effect observed with CXCL8 only | completely inhibited | completely inhibited | completely inhibited | completely inhibited | completely inhibited | completely inhibited
CCCCc1nc(Cl)c(CO)n1Cc1ccc(-c2ccccc2-c2nn[nH]n2)cc1 [losartan] | – | – | not being altered | indistinguishable from that observed with CXCL8 only | completely inhibited | – | – | – | – | – | – | – | –
CC[C@@H](Nc1c(Nc2cccc(C(=O)N(C)C)c2O)c(=O)c1=O)c1ccc(C)o1 [navarixin] | indistinguishable from the effect observed with AngII only | indistinguishable from the effect observed with AngII only | completely inhibited | indistinguishable from that observed with AngII only | not being altered | indistinguishable from the effect observed with AngII only | indistinguishable from the effect observed with AngII only | indistinguishable from the effect observed with AngII only | did not alter | did not alter | did not alter | – | –
CCCc1nc2c(C)cc(-c3nc4ccccc4n3C)cc2n1Cc1ccc(-c2ccccc2C(=O)O)cc1 [telmisartan] | – | – | not being altered | indistinguishable from that observed with CXCL8 only | completely inhibited | – | – | – | – | – | – | – | –
